Test [1] relates to human SKM-1 acute myeloid leukemia cells. Briefly: SKM-1 antiproliferation cell-based assay (ATPlite). The following applies: Homo sapiens. The essentials:
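Log-phase cells in RPMI 1640/15% FBS were seeded at 34722 cells/mL and exposed for 4 days to nine-concentration DMSO serial dilutions in triplicate. Viability was read as ATP luminescence (ATPlite 1step), and IC50 values came from variable-slope non-linear regression.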
On the technique in general: Cellular ATP, detected with luciferase, serves as a proxy for viable cell number.

The target of test [2] is T1, human BRD4 bromodomain II (Homo sapiens, UniProt O60885).
T1 construct: human BRD4 bromodomain II [based on Genbank NM_058243, residues 349-460]; host or cells: E. coli
Put plainly: Bromodomain binding assay (AlphaScreen), BRD4 BDII. The essentials:
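First, His6-tagged BRD4 bromodomain (BDI residues 44-170 or BDII residues 349-460) is incubated with compound for 30 min at room temperature. Next the biotinylated H4 peptide is added for 30 min, then donor and acceptor beads, with 60 min in the dark before AlphaScreen reading and IC50 fitting.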
(In general: Alpha assays give light when donor and acceptor beads are brought close together.)

The mark [3] stands for this setting: SKM-1, 96 h, SKM-1 antiproliferation assay, 4 days, Table C2.
Setting [4] is: AlphaScreen assay, Table C2, read-out: BRD4 BDII IC50.
The mark [5] stands for this setting: SKM-1, SKM-1 antiproliferation assay.
[6] abbreviates: BRD4 BDII AlphaScreen assay, read-out: BRD4 BD2 IC50.

These results are taken from patent US20250179059A1 (The Regents of the University of California, priority 2021, published 2025).

Read-outs that look alike come from different tables or passages of the source.

In general, GI50 refers to the concentration that inhibits growth by half. Usually IC50 stands for the concentration needed to halve the response being measured.

As to `Cn1ccn(-c2ccc(-c3cc(F)cc(-c4ccnc(N5CCN6CCCCC6C5)c4)c3O)cc2Cl)c1=O` (stereo not shown) [Example 624, 1-(3-chloro-5′-fluoro-3′-(2-(hexahydro-1H-pyrido[1,2-a]pyrazin-2(6H)-yl)pyridin-4-yl)-2′-hydroxy-[1,1′-biphenyl]-4-yl)-3-methyl-1H-imidazol-2(3H)-one], the concentration for 50% growth inhibition (GI50) in test [1] (setting [3]) is 30 to 300 nM. Besides, in test [2] (setting [4]), the IC50 lay within 0.01 to 1 nM.
Consider `CNc1cc(-c2ccc(-n3ccn(C)c3=O)c(Cl)c2)c(O)c(-c2cccc(N3CCN(C(C)(C)C)CC3)c2)n1` [Example 1031, 1-(4-(2-(3-(4-(tert-Butyl)piperazin-1-yl)phenyl)-3-hydroxy-6-(methylamino)pyridin-4-yl)-2-chlorophenyl)-3-methyl-1H-imidazol-2(3H)-one], for which, in test [1] (setting [5]), the 50% growth inhibitory concentration (GI50) lay within 30 to 300 nM. Also, the 50% inhibitory concentration (IC50) in test [2] (setting [6]) was 1 to 10 nM.
With `Cn1ccn(-c2ccc(-c3cc(F)cc(-c4ccnc(-c5cccnc5)c4)c3O)cc2Cl)c1=O` [Example 480, 1−(3′-([2,3′-bipyridin]-4-yl)-3-chloro-5′-fluoro-2′-hydroxy-[1,1′-biphenyl]-4-yl)-3-methyl-1H-imidazol-2(3H)-one], the GI50 in test [1] (setting [3]) was in the range of 300 to 3000 nM. In addition, the IC50 in test [2] (setting [4]) fell in the range of 1 to 10 nM.
On the same counts, the results for `CN1CC2(C1)CN(c1cncc(-c3cc(F)cc(-c4ccc(-n5ccn(C)c5=O)c(Cl)c4)c3O)c1)C2` [Example 488, 1-(3-chloro-5′-fluoro-2′-hydroxy-3′-(5-(6-methyl-2,6-diazaspiro[3.3]heptan-2-yl)pyridin-3-yl)-[1,1′-biphenyl]-4-yl)-3-methyl-1H-imidazol-2(3H)-one] are 0.3 to 30 nM and 1 to 10 nM.
The compound `Cn1cc(-c2cc(F)cc(-c3ccc(-n4ccn(C)c4=O)c(Cl)c3)c2O)cc(N2CCC[C@H](N)C2)c1=O` [Example 425, (S)-3-(3-aminopiperidin-1-yl)-5-(3′-chloro-5-fluoro-2-hydroxy-4′-(3-methyl-2-oxo-2,3-dihydro-1H-imidazol-1-yl)-[1,1′-biphenyl]-3-yl)-1-methylpyridin-2(1H)-one] displayed a GI50 in test [1] (setting [3]) of 30 to 300 nM. Also, in test [2] (setting [4]), the IC50 is 0.01 to 1 nM.
In test [1] (setting [3]), `Cn1ccn(-c2ccc(-c3cc(F)cc(-c4ccnc(N5CCS(=O)(=O)CC5)c4)c3O)cc2Cl)c1=O` [Example 707, 1-(3-chloro-3′-(2-(1,1-dioxidothiomorpholino)pyridin-4-yl)-5′-fluoro-2′-hydroxy-[1,1′-biphenyl]-4-yl)-3-methyl-1H-imidazol-2(3H)-one] returned a GI50 of 30 to 300 nM. Besides, the IC50 in test [2] (setting [4]) fell in the range of 1 to 10 nM.
On the same counts, the results for `Cn1ccn(-c2ccc(-c3cc(F)cc(-c4ccnc(N5CCCCC5)c4)c3O)cc2Cl)c1=O` [Example 612, 1-(3-chloro-5′-fluoro-2′-hydroxy-3′-(2-(piperidin-1-yl)pyridin-4-yl)-[1,1′-biphenyl]-4-yl)-3-methyl-1H-imidazol-2(3H)-one] are 300 to 3000 nM and 1 to 10 nM.
In test [1] (setting [3]), `Cn1ccn(-c2ccc(-c3cc(F)cc(-c4ccnc(N5CC[C@](C)(N)C5)c4)c3O)cc2Cl)c1=O` [Example 711, (S)-1-(3′-(2-(3-amino-3-methylpyrrolidin-1-yl)pyridin-4-yl)-3-chloro-5′-fluoro-2′-hydroxy-[1,1′-biphenyl]-4-yl)-3-methyl-1,3-dihydro-2H-imidazol-2-one] registered a 50% growth inhibitory concentration (GI50) of 0.3 to 30 nM. The IC50 in test [2] (setting [4]) lay in the range of 0.01 to 1 nM.
The corresponding values for `[2H]C([2H])([2H])n1ccn(-c2ccc(-c3cc(F)cc(-c4ccnc(N5CCC[C@H](N)C5)c4)c3O)cc2Cl)c1=O` [Example 452, (S)-1-(3′-(2-(3-aminopiperidin-1-yl)pyridin-4-yl)-3-chloro-5′-fluoro-2′-hydroxy-[1,1′-biphenyl]-4-yl)-3-deuteromethyl-1H-imidazol-2(3H)-one] are 0.3 to 30 nM and 0.01 to 1 nM.
Consider `Cn1ccn(-c2ccc(-c3cc(F)cc(-c4ccnc(N5CCN(C67CC(C6)C7)CC5)c4)c3O)cc2Cl)c1=O` [Example 662, 1-(3′-(2-(4-(bicyclo[1.1.1]pentan-1-yl)piperazin-1-yl)pyridin-4-yl)-3-chloro-5′-fluoro-2′-hydroxy-[1,1′-biphenyl]-4-yl)-3-methyl-1H-imidazol-2(3H)-one], for which the concentration for 50% growth inhibition (GI50) in test [1] (setting [3]) was 30 to 300 nM. For the same compound, the 50% inhibitory concentration (IC50) in test [2] (setting [4]) is 1 to 10 nM.
The corresponding values for `CN1CCN(c2ccc(-c3cc(F)cc(-c4ccnc(N5CCNC(C(F)(F)F)C5)c4)c3O)cc2Cl)C1=O` (stereo not shown) [Example 444, 1-(3-chloro-5′-fluoro-2′-hydroxy-3′-(2-(3-(trifluoromethyl)piperazin-1-yl)pyridin-4-yl)-[1,1′-biphenyl]-4-yl)-3-methylimidazolidin-2-one] are 300 to 3000 nM and 10 to 100 nM.
In test [1] (setting [5]), `Cc1nc(-c2cccc(N3CCN(C(C)(C)C)CC3)c2)c(O)c(-c2ccc(-n3ccn(C)c3=O)c(Cl)c2)n1` [Example 920, 1-(4-{6-[3-(4-tert-Butyl-piperazin-1-yl)-phenyl]-5-hydroxy-2-methyl-pyrimidin-4-yl}-2-chloro-phenyl)-3-methyl-1,3-dihydro-imidazol-2-one] had a concentration for 50% growth inhibition (GI50) of 30 to 300 nM. For the same compound, the half-inhibitory concentration (IC50) in test [2] (setting [6]) was above 100 nM.
Turning to `Cn1cc(-c2cc(F)cc(-c3ccc(-n4ccn(C)c4=O)c(Cl)c3)c2O)cc(N2CCC(C)(O)C2)c1=O` (stereo not shown) [Example 725, 5-(3′-chloro-5-fluoro-2-hydroxy-4′-(3-methyl-2-oxo-2,3-dihydro-1H-imidazol-1-yl)-[1,1′-biphenyl]-3-yl)-3-(3-hydroxy-3-methylpyrrolidin-1-yl)-1-methylpyridin-2(1H)-one], in test [1] (setting [3]), the concentration for 50% growth inhibition (GI50) was 30 to 300 nM. In addition, the IC50 in test [2] (setting [4]) was 1 to 10 nM.
Turning to `Cn1ccn(-c2ccc(-c3cc(F)cc(-c4cnc(Cl)c(N5CCN(C(C)(C)C)CC5)c4)c3O)cc2Cl)c1=O` [Example 789, 1-(3′-(5-(4-(tert-butyl)piperazin-1-yl)-6-chloropyridin-3-yl)-3-chloro-5′-fluoro-2′-hydroxy-[1,1′-biphenyl]-4-yl)-3-methyl-1H-imidazol-2(3H)-one], the GI50 in test [1] (setting [3]) was 0.3 to 30 nM. Further, the IC50 in test [2] (setting [4]) lay within 1 to 10 nM.
Turning to `O=C1NCCCN1c1ccc(-c2cc(F)cc(-c3ccnc(N4CCNCC4)c3)c2O)cc1Cl` [Example 287, 1-(3-chloro-5′-fluoro-2′-hydroxy-3′-(2-(piperazin-1-yl)pyridin-4-yl)-[1,1′-biphenyl]-4-yl)tetrahydropyrimidin-2(1H)-one], in test [1] (setting [3]), the concentration for 50% growth inhibition (GI50) lay in the range of 300 to 3000 nM. Also, the IC50 in test [2] (setting [4]) is above 100 nM.
The compound `C[C@@H]1CN(c2cccc(-c3cc(F)cc(-c4ccc(-n5ccn(C)c5=O)c(Cl)c4)c3O)c2)CCN1` [Example 671, (R)-1-(3-chloro-5′-fluoro-2′-hydroxy-3″-(3-methylpiperazin-1-yl)-[1,1′:3′,1″-terphenyl]-4-yl)-3-methyl-1H-imidazol-2(3H)-one] registered a GI50 in test [1] (setting [3]) of 0.3 to 30 nM. Also, the half-maximal inhibitory concentration (IC50) in test [2] (setting [4]) fell in the range of 0.01 to 1 nM.
On the same counts, the results for `CN1CCN(c2ccc(-c3cc(OC(F)(F)F)cc(-c4ccnc(N5CCNCC5)c4)c3O)cc2Cl)C1=O` [Example 309, l-(3-chloro-2′-hydroxy-3′-(2-(piperazin-l-yl)pyridin-4-yl)-5′-(trifluoromethoxy)-[1,1′-biphenyl]-4-yl)-3-methylimidazolidin-2-one] are at least 3000 nM and 10 to 100 nM.
`CC(C)[C@@H]1CN(c2cc(-c3cc(F)cc(-c4ccc(-n5ccn(C)c5=O)c(Cl)c4)c3O)ccn2)CCN1` [Example 667, (R)-1-(3-chloro-5′-fluoro-2′-hydroxy-3′-(2-(3-isopropylpiperazin-1-yl)pyridin-4-yl)-[1,1′-biphenyl]-4-yl)-3-methyl-1H-imidazol-2(3H)-one] came in with a concentration for 50% growth inhibition (GI50) in test [1] (setting [3]) of 0.3 to 30 nM. For the same compound, the IC50 in test [2] (setting [4]) lay within 0.01 to 1 nM.
Consider `CNc1ncc(-c2cc(F)cc(-c3ccc(-n4ccn(C)c4=O)c(Cl)c3)c2O)cc1N1CCC2(CCN2C(C)C)C1` (stereo not shown) [Example 965, 1-{3-Chloro-5′-fluoro-2′-hydroxy-3′-[5-(1-isopropyl-1,6-diaza-spiro[3.4]oct-6-yl)-6-methylamino-pyridin-3-yl]-biphenyl-4-yl}-3-methyl-1,3-dihydro-imidazol-2-one], for which the GI50 in test [1] (setting [5]) is 0.3 to 30 nM. Further, the IC50 in test [2] (setting [6]) lay within 1 to 10 nM.
For the compound `C#CCN1CCN(c2ccc(-c3cc(F)cc(-c4ccnc(N5CCNCC5)c4)c3O)cc2Cl)C1=O` [Example 367, 1-(3-chloro-5′-fluoro-2′-hydroxy-3′-(2-(piperazin-1-yl)pyridin-4-yl)-[1,1′-biphenyl]-4-yl)-3-(prop-2-yn-1-yl)imidazolidin-2-one], in test [1] (setting [3]), the GI50 was 300 to 3000 nM. The IC50 in test [2] (setting [4]) was above 100 nM.
The corresponding values for `CC(=O)Nc1ccc(-c2cc(C)cc(-c3ccnc(N4CCNCC4)c3)c2O)cc1F` [Example 275, N-(3-fluoro-2′-hydroxy-5′-methyl-3′-(2-(piperazin-1-yl)pyridin-4-yl)-[1,1′-biphenyl]-4-yl)acetamide] are 30 to 300 nM and 1 to 10 nM.
The corresponding values for `CC(=O)NCCNc1ncc(-c2cc(F)cc(-c3ccc(N4CCN(C)C4=O)c(Cl)c3)c2O)cc1N1CCNCC1` [Example 395, N-(2-((5-(3′-chloro-5-fluoro-2-hydroxy-4′-(3-methyl-2-oxoimidazolidin-1-yl)-[1,1′-biphenyl]-3-yl)-3-(piperazin-1-yl)pyridin-2-yl)amino)ethyl)acetamide] are 30 to 300 nM and 1 to 10 nM.
In test [1] (setting [5]), `CC(=O)Nc1ccc(-c2cc(F)cc(-c3cccc(N4CCN(C(C)(C)C)CC4)c3)c2O)cn1` [Example 908, N-(5-(3′-(4-(tert-butyl)piperazin-1-yl)-5-fluoro-2-hydroxy-[1,1′-biphenyl]-3-yl)pyridin-2-yl)acetamide] yielded a 50% growth inhibitory concentration (GI50) above 3000 nM. In test [2] (setting [6]), the half-maximal inhibitory concentration (IC50) is above 100 nM.
